# In US8889638B2, “Stimulus-triggered prodrugs” (The Regents of the University of California, priority 2010, dated 2014):
# pIC50: −log10 of the molar value.
# How the values were obtained:
# MMP-3 = MMP-3 (Homo sapiens, UniProt P08254); settings: read-out: IC50 against MMP-3; cited from earlier work
# [1] = biological target: T1, MMP-9 (catalytic domain, human, recombinant) (Homo sapiens, UniProt P14780); assay: MMP-9 inhibition assay of boronic ester proinhibitors (IC50; activation with H2O2); format: biochemical; settings: active inhibitor; read-out: IC50 against MMP-9
# T1 construct: MMP-9 (catalytic domain, human, recombinant); purchased BIOMOL International
# T1 sequence (P14780 107-444 limits assumed): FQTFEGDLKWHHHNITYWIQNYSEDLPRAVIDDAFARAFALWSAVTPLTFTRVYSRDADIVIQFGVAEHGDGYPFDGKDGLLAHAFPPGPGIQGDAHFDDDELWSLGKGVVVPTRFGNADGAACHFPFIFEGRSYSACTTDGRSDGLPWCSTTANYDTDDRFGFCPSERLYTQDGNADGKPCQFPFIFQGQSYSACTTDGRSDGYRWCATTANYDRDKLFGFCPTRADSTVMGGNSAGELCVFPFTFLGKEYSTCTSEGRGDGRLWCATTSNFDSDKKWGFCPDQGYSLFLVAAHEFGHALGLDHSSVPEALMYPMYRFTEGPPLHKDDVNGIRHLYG
# Procedure: MMP-9 (catalytic domain, human, recombinant) and MMP-12 (catalytic domain, human, recombinant) were purchased from Enzo Life Sciences. The assays were carried out in 96-well plates using a Bio-Tek Flx 800 plate reader. IC50 values were obtained for proinhibitors B17 and B18 against MMP-9 and MMP-12. Serial dilutions of the compounds dissolved in DMSO were incubated at 37° C. for 30 minutes with 20 μL of the appropriate MMP (0.45 U/mL for MMP-9 and 0.35 U/mL for MMP-12) in MMP assay buffer (50 mM HEPES, 10 mM CaCl2, 0.10% Brij-35, pH 7.5), for a total volume of 99 pt. The reaction was initiated by the addition of 1 μL (400 μM) of the fluorescent substrate (Mca-Pro-Leu-Gly-Leu-Dpa-Ala-Arg-NH2 where Mca=(7-methoxycoumarin-4-yl)-acetyl and Dpa=N-3-(2,4-dinitrophenyl)-L-α-β-diaminopropionyl)) and kinetic activity was measured every minute for 20 min with excitation and emission wavelengths at 335 nm and 405 nm, respectively. Measurements were performed in duplicate. The percent inhibition was plotted versus the inhibitor concentration. A linear fit of the data for each experiment gives the IC50 value of the inhibitor where y=50%.
# MMP activity in the presence of H2O2 was evaluated with both MMP-9 and MMP-12 with 1 h of activation at concentrations close to their IC50 values. Using the calculated rate constants for the protected ZBGs B19 and B20, it was determined that 1 h of activation time for each proinhibitor with 100 μM H2O2 will provide enough 1,2-HOPO-2 or PY-2 to inhibit the MMPs at 50%. For example, for proinhibitor B17 with MMP-9, if the rate=k[B17][H2O2] and k=3.9 M^−1s^−1, [B17]=10 μM, and [H2O2]=100 μM, the rate of conversion would be 3.9×10^−9 M/s. Therefore, activation for 1 h would release 14 μM 1,2-HOPO-2, or enough inhibitor to provide approximately 50% inhibition of MMP-9 (IC50 value for 1,2-HOPO-2 against MMP-9 is ˜6 μM).
# In each well, 1 μL of proinhibitors B17 and B18 and the inhibitors 1,2-HOPO-2 and PY-2 in DMSO (1 mM for MMP-9 or 5 μM for MMP-12) were incubated for 1 h at 37° C. with 10 μL H2O2 (1 mM in HEPES buffer, pH 7.5) in MMP assay buffer for a total volume of 79 pt. […] After activation of the proinhibitors, 20 μL of the appropriate MMP (0.45 U/mL for MMP-9 and 0.35 U/mL for MMP-12) was added and incubated for an additional 30 min. The reaction was initiated by the addition of 1 pt (400 μM) of the fluorescent substrate and kinetic activity was measured every minute for 20 min with excitation and emission wavelengths at 335 nm and 405 nm, respectively. Enzyme activity with inhibitor was calculated with respect to the control experiment (no inhibitor present). Measurements were performed in duplicate in two independent experiments.
# MMP-12 = MMP-12 (Homo sapiens, UniProt P39900); settings: read-out: IC50 against MMP-12; cited from earlier work
# Sequence of MMP-12 (P39900 106-470): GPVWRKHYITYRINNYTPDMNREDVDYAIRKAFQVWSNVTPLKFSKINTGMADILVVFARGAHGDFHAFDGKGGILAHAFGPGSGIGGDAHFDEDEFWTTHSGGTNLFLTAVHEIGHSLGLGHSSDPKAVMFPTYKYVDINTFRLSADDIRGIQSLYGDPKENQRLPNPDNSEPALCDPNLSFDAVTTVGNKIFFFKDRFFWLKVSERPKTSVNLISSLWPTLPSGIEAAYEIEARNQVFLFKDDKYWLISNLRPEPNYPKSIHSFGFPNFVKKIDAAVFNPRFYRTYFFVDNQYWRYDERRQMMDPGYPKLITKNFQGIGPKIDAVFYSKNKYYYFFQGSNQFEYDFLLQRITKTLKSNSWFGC
# MMP-8 = MMP-8 (Homo sapiens, UniProt P22894); settings: read-out: IC50 against MMP-8; cited from earlier work
# Sequence of MMP-8 (P22894 101-467): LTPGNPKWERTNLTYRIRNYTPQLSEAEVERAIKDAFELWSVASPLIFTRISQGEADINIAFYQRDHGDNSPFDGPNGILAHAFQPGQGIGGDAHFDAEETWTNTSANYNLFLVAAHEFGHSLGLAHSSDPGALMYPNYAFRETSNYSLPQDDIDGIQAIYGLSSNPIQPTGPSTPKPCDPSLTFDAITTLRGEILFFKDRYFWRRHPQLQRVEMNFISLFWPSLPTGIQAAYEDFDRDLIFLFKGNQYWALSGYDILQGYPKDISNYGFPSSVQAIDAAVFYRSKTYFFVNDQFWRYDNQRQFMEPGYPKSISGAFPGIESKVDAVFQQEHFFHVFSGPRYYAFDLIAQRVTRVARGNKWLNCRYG
# [2] = Solubility in buffered solution / water; format: physicochemical; settings: relative to the parent analog
# [3] = Cleavage of boronic ester/acid protected compounds by H2O2 (UV-Vis, rate constant, HPLC); format: physicochemical; settings: for k, pseudo first-order rate constants calculated with an excess of H2O2: 50 μM in HEPES buffer pH 7.5, room temperature; for rate constant of conversion with an excess of H2O2: pseudo-first order conditions, HEPES buffer
# Procedure: (§1) Absorption spectra of compounds B1-B16 were taken on a Perkin-Elmer Lambda 25 UV-visible spectrophotometer. To a 1.0 mL solution at 0.05 mM concentration in HEPES buffer (50 mM, pH 7.5) was added H2O2 (10 uL (0.09 M) in HEPES for compounds B1-B12 and B14-B16, 10 uL (0.9 M) in HEPES for compound B3, and 2.8 uL (0.09 M) in HEPES for compound B13). Spectra were monitored over time at room temperature. Absorption spectra of compounds B17-B21 were taken on a Perkin-Elmer Lambda 25 UV-visible spectrophotometer. To a 1.0 mL solution at 0.05 mM concentration of compounds 1-7 in HEPES buffer (50 mM, pH=7.5) was added H2O2 (10 uL, 0.09 M in HEPES) or KO2 (0.10 mM) with catalase (5 U). Hydrolytic stability was measured by monitoring samples of B19-B21 in HEPES buffer for a 24 h time period. Spectra were monitored over time at room temperature.
# The pseudo-first order rate constant was calculated by monitoring the absorption spectra over time in the presence of excess hydrogen peroxide. To a 1.0 mL solution of compounds B1-B3 and B10-B14 in HEPES buffer (50 mM, pH 7.5) at 50 μM was added H2O2 to final concentrations of 150 μM, 250 μM, 500 μM, 750 μM, and 900 μM. Spectra were monitored over 15-30 min at room temperature with at least 50 spectra recorded. The change in absorption at 302 nm for B1-B3, 272 nm for B10, 312 nm for B11, 268 for B12, 306 nm for B13, and 303 nm for B14 were monitored. For compounds B1-B3 and B10-B11, the rate constant (kobs) was found from monitoring the appearance of the monitored absorption peak by plotting the linear slope of ln [(A∞−At)/(A∞)] vs. time (where A∞ is the absorbance of a 50 μM sample of the methyl salicylate for B1-B3, maltol for B10, and 1,2-HOPO for B11). For compounds B12-B14 the rate constant (kobs) was found from monitoring the disappearance of the monitored absorption peak by plotting the linear slope of ln [(A−AZBG)/(A0−AZBG)] vs. time (where AZBG is the absorbance of a 50 μM sample of the ZBG and A0 is the initial absorbance of […]).^3 The rate of conversion was determined from the slope of the line of kobs vs. [H2O2]. The pseudo-first order rate constant was calculated following literature procedure.^[15] To a 1.0 mL solution of compounds B19-B21 in HEPES buffer at 50 μM was added H2O2 to final concentrations of 150 μM, 250 μM, 500 μM, 750 μM, and 900 μM. Spectra were monitored over 15-30 min at room temperature with at least 50 spectra recorded. The change in absorption at 292 nm for B19 and 252 nm for B20 and B21 were monitored. The rate constant (kobs) was found from the linear slope of ln [(A−AZBG)/(A0−AZBG)] vs. time (where AZBG is the absorbance of a 50 μM sample of the ZBG and A0 is the initial absorbance of B19-B21). The rate of conversion was determined from the slope of the line of kobs vs. [H2O2].
# Analytical HPLC was performed on a HP Series 1050 system equipped with a Vydac® C18 reverse phase column (218 TP, 250×4.6 mm, 5 μm). […] Starting with 95% A and 5% B, an […] gradient was run for 15 min to a final solvent mixture of 5% A and 95% B, which was held for 5 min before ramping back down to 95% A and 5% B in 2 min and holding for an additional 4 min. Compounds were prepared in HEPES buffer (50 mM, pH 7.5) at a concentration of 1 mM. Retention times of compounds were determined under identical HPLC conditions prior to and after reaction with H2O2. LC-MS(+) was performed on compounds B6, B15 and B16 to confirm cleavage of the boronic ester to the phenolic moiety.
# [4] = Hydrolytic stability of boronic ester compounds in HEPES buffer; format: physicochemical; settings: 24 h time period
# Procedure: as §1
# [5] = Stability of protected ZBGs towards KO2 with catalase; format: physicochemical; settings: KO2 0.10 mM and catalase 5 U, 60 min
# Procedure: as §1
# [6] = Cleavage of sulfonate ester PZBGs and proMMPi by H2O2 (UV-Vis, rate constant, HPLC); format: physicochemical; settings: 50 μM in HEPES buffer, room temperature
# Procedure: (§2) Absorption spectra of compounds were taken on a Perkin-Elmer Lambda 25 UV-Visible Spectrophotometer. To a 1.0 mL solution at 0.05 mM concentration of each compound in HEPES buffer (50 mM, pH 7.5) was added H2O2 (10 μL, 0.09M in HEPES) and absorption spectra were monitored over time at room temperature. Hydrolytic stability was measured by monitoring each sample in HEPES buffer over a 24 hour time period.
# The pseudo-first order rate constant was calculated following literature procedure. To a 1.0 mL solution of compounds PZBG-1a, PZBG-1b, PZBG-1e, PZBG-5a, and PZBG-5b in HEPES buffer at 50 μM was added H2O2 to final concentrations of 150 μM, 250 μM, 500 μM, 750 μM, and 900 μM. Spectra were monitored over 15-30 min at room temperature with at least 50 spectra recorded at every concentration. The change in absorption at 298 nm for PZBG-1a and PZBG-1b were monitored, while the change in absorption at 288 nm was recorded for PZBG-1e, and 310 nm for PZBG-5a and PZBG-5b. The rate constant (kobs) was found from the linear slope of ln [(A−AZBG)/(Ao−AZBG)] vs. time where AZBG is the absorbance of a 50 μM sample of the ZBG or full-length inhibitor and AO is the initial absorbance of PZBG-1a, PZBG-1b, PZBG-1e, PZBG-5a, and PZBG-5b. The rate of conversion was determined from the slope of the line of kobs vs. [H2O2].
# Analytical HPLC was performed on a HP Series 1050 system equipped with a Vydac® C18 reverse phase column (218 TP, 250×4.6 mm, 5 μm). […] Starting with 95% A and 5% B, an […] gradient was run for 15 min to a final solvent mixture of 5% A and 95% B, which was held for 5 min before ramping back down to 95% A and 5% B in 2 min and holding for an additional 4 min. Compounds ZBG-1a and PZBG-1a were prepared in HEPES buffer (50 mM, pH 7.5) at a concentration of 1 mM and retention times were determined. To evaluate cleavage by H2O2, a 1 mM solution of PZBG-1a in HEPES buffer was reacted with a 20-fold excess of H2O2 before analyzing under identical HPLC conditions as before.
# [7] = Hydrolytic stability of sulfonate esters in HEPES buffer; format: physicochemical; settings: in 6 h
# Procedure: as §2
# Sequence of MMP-3 (P08254 100-477, species assumed): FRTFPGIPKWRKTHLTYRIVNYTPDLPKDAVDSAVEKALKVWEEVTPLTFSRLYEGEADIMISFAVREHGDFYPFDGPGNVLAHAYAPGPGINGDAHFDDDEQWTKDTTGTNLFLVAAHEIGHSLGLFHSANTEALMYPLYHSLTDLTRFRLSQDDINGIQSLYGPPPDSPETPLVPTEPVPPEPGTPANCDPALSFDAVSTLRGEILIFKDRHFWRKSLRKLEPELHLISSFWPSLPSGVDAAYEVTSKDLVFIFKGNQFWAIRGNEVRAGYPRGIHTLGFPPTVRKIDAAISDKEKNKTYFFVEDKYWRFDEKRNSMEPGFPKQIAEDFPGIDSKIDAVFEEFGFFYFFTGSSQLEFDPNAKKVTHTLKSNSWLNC
SMILES,solubility [2],solution stability in buffer [4],stability towards KO2 [5],"k, pseudo first-order rate constants calculated with an excess of H2O2 [3] [M⁻¹ s⁻¹]",rate constant of conversion with an excess of H2O2 [3] [M⁻¹ s⁻¹],other results
"O=C(NCc1ccc(-c2ccccc2)cc1)c1cccc(=O)n1O [1,2-HOPO-2, N-(Biphenyl-4-ylmethyl)-1-hydroxy-6-oxo-1,6-dihydropyridine-2-carboxamide]",–,–,–,–,–,pIC50 (MMP-3): > 7.00; pIC50 [1]: ~5.22; pIC50 (MMP-12): > 7.00; pIC50 (MMP-8): > 7.00
"O=c1ccccn1OCc1ccc(B(O)O)cc1 [Compound B11, (4-(((2-Oxopyridin-1(2H)-yl)oxy)methyl)phenyl)boronic acid]",improved solubility,–,–,5.9 ± 0.2,5.9,–
"O=C(O)c1ccc(S(=O)(=O)On2ccccc2=O)cc1 [PZBG-1e, 4-(((2-Oxopyridin-1(2H)-yl)oxy)sulfonyl)benzoic acid]",substantial increase in solubility,–,–,–,–,pseudo-first order rate constant with an excess of H2O2 [6]: 1.3 M⁻¹ s⁻¹; cleavage in buffer [7]: ~50%

# The next lines start with results.
solubility [2],solution stability in buffer [4],stability towards KO2 [5],SMILES,"k, pseudo first-order rate constants calculated with an excess of H2O2 [3] [M⁻¹ s⁻¹]",rate constant of conversion with an excess of H2O2 [3] [M⁻¹ s⁻¹],other results
improved solubility,–,–,"Cc1occc(=O)c1OCc1ccc(B(O)O)cc1 [Compound B10, (4-(((2-Methyl-4-oxo-4H-pyran-3-yl)oxy)methyl)phenyl)boronic acid]",3.1 ± 0.5,–,–
–,stable,stable towards KO2,"CC1(C)OB(c2ccc(COn3ccccc3=O)cc2)OC1(C)C [Compound B19, 1-((4-(4,4,5,5-tetramethyl-1,3,2-dioxaborolan-2-yl)benzyl)oxy)pyridin-2(1H)-one]",–,4.0,–
–,stable,stable towards KO2,"Cc1occc(=O)c1OCc1ccc(B2OC(C)(C)C(C)(C)O2)cc1 [Compound B20, 2-methyl-3-((4-(4,4,5,5-tetramethyl-1,3,2-dioxaborolan-2-yl)benzyl)oxy)-4H-pyran-4-one]",–,2.9,–
